Assay results: patent US20250135026A1, “Antibody Drug Conjugates” (BeiGene Switzerland GmbH, priority 2021, published 2025)
Like-named read-outs stand apart in the source and are kept apart here.

Tests used:
A375 = test: Compounds cellular killing (Cell Titer-Glo, 6 days, 2D); assay type: cell-based, human; details: for cell-killing activity compared with Dxd: A375; for EC50 / Emax: Homo sapiens; for Emax: read-out: Emax
Protocol: (§1) The cell line was grown in a humidified 5% CO2 atmosphere at 37° C., and was regularly tested for the presence of mycoplasma with MycoAlert™ PLUS Mycoplasma Detection Kit (Lonza, LT07-710).
(§2) Incubation at 37° C., 5% CO2, overnight.
(§3) Adding the fresh growth-medium containing the varying concentrations of compounds, 50 ul/well.
(§4) Incubation at 37° C., 5% CO2, 6 days.
(§5) The cell viability detected by Cell Titer-Glo (Promega, G7573). Add 70 µL/well of CellTiter-Glo® Reagent in each well.
(§6) Allow the plates to incubate at room temperature for 10 minutes to stabilize luminescent signal.
(§7) Analyze with Microplate Reader.

in vitro = details: PAMPA
Calu-6 = test: Compounds cellular killing (Cell Titer-Glo, 6 days, 2D); assay type: cell-based; details: for EC50 / Emax: Homo sapiens; for Emax: read-out: Emax
Protocol: as §1, §2, §3, §4, §5, §6, §7

HCC1569 = test: Payload cellular killing, 2D; assay type: cell-based; details: Homo sapiens, HCC1569, 2D (HER3 +++); for Emax: read-out: Emax
PAMPA = details: free payload
MDA-MB-453 = test: Payload cellular killing, 2D; assay type: cell-based, human; details: Homo sapiens, MDA-MB-453, 2D (HER3 +++); for Emax: read-out: Emax
Protocol: as §1

cathepsin B = cathepsin B (Homo sapiens, UniProt P07858); test: Cathepsin B mediated rhodamine release; assay type: biochemical; details: 150 nM, 0.3 unit activated cathepsin B, pH 5.5, 37° C., FIG. 21
Protocol: CTSB was activated by incubation at ambient temperature for 15 min with 30 mM dithiothreitol and 15 mM EDTA at PH5.5.
Reaction buffer preparation: 25 mM sodium acetate & 1 mM EDTA, PH5.5.
Adding 150 nM NAcCys-13 & NAcCys-14 & NAcCys-15 & NAcCys-16 & NAcCys-17 and 0.3 unit activated cathepsin B mixture according to the experiment template.
The reaction mixtures were incubated at 37° C. immediately in the reader, then start reading using the kinetic set-up described. (TECAN SPARK: excitation/emission: 485/520 nm) (120 cycles, every one min) Gain Manual: 77%
Data analysis by GraphPad Prism 9 is illustrated in FIG. 21.

[1] = A-375, Table 27, free payload, A375, 2D (Her3 ++)
[2] = A-375, […], Table 29, payload, A375, 6d, 2D (Her3++)
[3] = A-375, Table 29, payload, A375, 6d, 2D (Her3++)
[4] = Calu-6, Table 27, free payload, Calu-6, 2D (HER3 neg.)
[5] = Calu-6, […], Table 29, payload, Clau6, 6d, 2D (Her3 neg)
[6] = Calu-6, Table 29, payload, Clau6, 6d, 2D (Her3 neg)
[7] = A-375, Table 28, payload, A375, 2D (Her3 ++)
[8] = Calu-6, Table 28, payload, Calu-6, 2D (HER3 neg.)

Row | SMILES | cell-killing activity compared with Dxd (A375) | EC50 (A375; [1]) [nM] | EC50 (A375; [2]) [nM] | EC50 (A375; A-375, Table 21, A375) [nM] | Emax (A375; A-375, Table 21, A375) [%] | Emax (A375; [3]) [%] | recovery (in vitro) [%] | cell-killing activity compared with Dxd (Calu-6; Calu-6) | EC50 (Calu-6; Calu-6, Table 21, Calu-6) [nM] | EC50 (Calu-6; [4]) [nM] | EC50 (Calu-6; [5]) [nM] | Emax (Calu-6; [6]) [%] | Emax (Calu-6; Table 21, Calu-6) [%] | PAMPA -Log Pe | EC50 (A375; [7]) [nM] | Emax (Calu-6; [4]) [%] | EC50 (Calu-6; [8]) [nM] | Emax (Calu-6; [8]) [%] | Emax (HCC1569; HCC1569, Table 28, payload) [%] | PAMPA -Log Pe (PAMPA) | also measured
1 | CC[C@@]1(O)C(=O)OCc2c1cc1n(c2=O)Cc2c-1nc1cc(F)c(C)c3c1c2[C@@H](NC(=O)C(C)(C)CO)CC3 [Compound 66, N-((1S,9S)-9-ethyl-5-fluoro-9-hydroxy-4-methyl-10,13-dioxo-2,3,9,10,13,15-hexahydro-1H,12H-benzo[de]pyrano[3′,4′:6,7]indolizino[1,2-b]quinolin-1-yl)-3-hydroxy-2,2-dimethylpropanamide] | stronger cell-killing activity than Dxd | 1.1 | 1.1 | 1.1 | 99.9 | 99.9 | 79.7 | stronger cell-killing activity than Dxd | 0.3 | 0.3 | 0.3 | 97.3 | 97.3 | 5.89 | – | – | – | – | – | – | –
2 | CC[C@@]1(O)C(=O)OCc2c1cc1n(c2=O)Cc2c-1nc1cc(F)c(C)c3c1c2[C@@H](NC(=O)CCO)CC3 [Compound 72] | less potent than Dxd | 4.4 | 4.4 | 4.4 | 99.9 | 99.9 | 48.1 | less potent than Dxd | 2 | 2 | 2 | 98.3 | 98.3 | 6.02 | – | – | – | – | – | – | –
3 | CC[C@@]1(O)C(=O)OCc2c1cc1n(c2=O)Cc2c-1nc1cc(F)c(C)c3c1c2[C@@H](NC(=O)CO)CC3 [DXd, reference compound] | – | 2.8 | 2.7 | 2.8 | 100 | 100 | 95.2 | – | – | – | – | – | – | – | 3.2 | 98 | 1.2 | 98.6 | 93.4 | 5.89 | Emax (Calu-6; Calu-6, Table 21, Calu-6): 98%; Emax (Calu-6; [5]): 98.8%; EC50 (HCC1569; HCC1569, Table 28, payload): 2.9 nM; EC50 (MDA-MB-453; MDA-MB-453, Table 28, payload): 1.9 nM; Emax (MDA-MB-453; MDA-MB-453, Table 28, payload): 98.7%
4 | CC[C@@]1(O)C(=O)OCc2c1cc1n(c2=O)Cc2c-1nc1cc(F)c(C)c3c1c2[C@@H](N)CC3 [Exatecan, reference compound] | – | 0.7 | – | – | – | – | 56 | – | – | 0.3 | – | – | – | – | 0.9 | 96.2 | 0.2 | 96.4 | 94.5 | 5.75 | Emax (A375; [1]): 99.9%; EC50 (HCC1569; Table 28, payload): 0.5 nM; Emax (MDA-MB-453; MDA-MB-453, Table 28, payload): 99.4%; EC50 (MDA-MB-453; Table 28, payload): 0.5 nM
5 | CCOC(=O)Nc1ccc2c(c1)Oc1cc(NC(=O)OCc3ccc(NC(=O)[C@H](CCCNC(N)=O)NC(=O)[C@@H](NC(=O)[C@H](CP(=O)(O)O)NC(=O)CCOCCOCCOCCN4C(=O)CC(SC[C@H](NC(C)=O)C(=O)O)C4=O)C(C)C)cc3)ccc1C21OC(=O)c2ccccc21 (some centres unmarked) [NAcCys-17] | – | – | – | – | – | – | – | – | – | – | – | – | – | – | – | – | – | – | – | – | cathepsin B mediated rhodamine release rate, rank (cathepsin B): NAcCys-15˜NAcCys-13 (benchmark)>NAcCys-14>NAcCys-17
